According to EP1167342A1, “Novel substituted nitrocatechols, their use in the treatment of some central and peripheral nervous system disorders and pharmaceutical compositions containing them” (Portela & Ca., S.A., priority 2000, dated 2002):

What was measured:
COMT = molecular target: T1, COMT (Homo sapiens, UniProt P21964); test: COMT activity in intact SK-N-SH cells (methylation of adrenaline to metanephrine, HPLC with electrochemical detection); format: cell-based; details: concentration of test compound 100 nM, means ±SEM of n=4-8
T1 construct: COMT activity was evaluated in cell monolayers by the ability to methylate adrenaline; host or cells: SK-N-SH
T1 sequence (P21964 1-271): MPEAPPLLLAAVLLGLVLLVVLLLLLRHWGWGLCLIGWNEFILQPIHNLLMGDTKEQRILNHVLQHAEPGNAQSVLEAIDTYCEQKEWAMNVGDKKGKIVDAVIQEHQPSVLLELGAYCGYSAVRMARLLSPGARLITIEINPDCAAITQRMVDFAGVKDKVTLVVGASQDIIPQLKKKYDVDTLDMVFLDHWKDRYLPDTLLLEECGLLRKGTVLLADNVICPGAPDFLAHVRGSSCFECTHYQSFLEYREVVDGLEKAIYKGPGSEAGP

Liver COMT = test: Ex vivo COMT activity in mouse liver homogenates after administration of test compound by gastric tube; set-up: species or system NMRI mice; details: for Liver COMT (% of control) 1h / Liver COMT (% of control) 6h: homogenates of mice liver, dose not given, means±S.E.M. of 4-8 experiments; for Liver COMT (% of control) 1h: 1 h after administration by gastric tube; for Liver COMT (% of control) 6h: 6 h after administration by gastric tube; for potency upon liver COMT compared with brain COMT: mice, after oral administration, statement in words
Brain COMT = test: Ex vivo COMT activity in mouse brain homogenates after administration of test compound by gastric tube; set-up: species or system NMRI mice; details: for Brain COMT (% of control) 1h / Brain COMT (% of control) 6h: homogenates of mice brain, dose not given, means±S.E.M. of 4-8 experiments; for Brain COMT (% of control) 1h: 1 h after administration by gastric tube; for Brain COMT (% of control) 6h: 6 h after administration by gastric tube; for activity in the brain: conclusion, statement in words

Row | Structure (SMILES) | COMT activity (% of control) (COMT) | Liver COMT (% of control) 1h (Liver COMT) | Liver COMT (% of control) 6h (Liver COMT) | Brain COMT (% of control) 1h (Brain COMT) | Brain COMT (% of control) 6h (Brain COMT) | potency upon liver COMT compared with brain COMT (Liver COMT) | activity in the brain (Brain COMT)
1 | Cl.O=C(CN1CCCCCC1)c1cc(O)c(O)c([N+](=O)[O-])c1 [Compound 1, 2-Azepan-1-yl-1-(3,4-dihydroxy-5-nitro-phenyl)-ethanone hydrochloride] | 4.3±0.6 % of control | 40.8±6.4 % of control | 49.9±2.2 % of control | 45.0±15.0 % of control | 102.0±19.0 % of control | – | –
2 | Cl.O=C(CCN1CCCCC1)c1cc(O)c(O)c([N+](=O)[O-])c1 [Compound 2, 1-(3,4-Dihydroxy-5-nitro-phenyl)-3-piperidin-1-yl-propan-1-one hydrochloride] | 7.5±0.6 % of control | 24.6±4.8 % of control | 56.9±17.7 % of control | 80.0±11.0 % of control | 95.0±12.0 % of control | much more potent upon liver COMT than brain COMT | limited activity in the brain
3 | Cl.O=C(CC(c1ccccc1)N1CCCCC1)c1cc(O)c(O)c([N+](=O)[O-])c1 (stereo not shown) [Compound 3, 1-(3,4-Dihydroxy-5-nitro-phenyl)-3-phenyl-3-piperidin-1-yl-propan-1-one hydrochloride] | 7.2±1.9 % of control | 13.5±3.2 % of control | 13.6±3.2 % of control | 81.0±11.0 % of control | 71.0±11.0 % of control | much more potent upon liver COMT than brain COMT | limited activity in the brain
4 | Cl.O=C(CC(c1ccccc1)N1CCCC1)c1cc(O)c(O)c([N+](=O)[O-])c1 (stereo not shown) [Compound 4, 1-(3,4-Dihydroxy-5-nitro-phenyl)-3-phenyl-3-pyrrolidin-1-yl-propan-1-one hydrochloride] | 23.8±2.9 % of control | 12.0±1.8 % of control | 14.4±4.3 % of control | 55.0±8.7 % of control | 49.6±4.9 % of control | – | –
5 | Cl.O=C(CC(c1ccccc1)N1CCOCC1)c1cc(O)c(O)c([N+](=O)[O-])c1 (stereo not shown) [Compound 5, 1-(3,4-Dihydroxy-5-nitro-phenyl)-3-morpholin-4-yl-3-phenyl-propan-1-one hydrochloride] | 40.2±8.7 % of control | 16.7±1.6 % of control | 35.2±9.6 % of control | 38.6±6.4 % of control | 57.2±5.1 % of control | equally potent in inhibiting liver and brain COMT activity | –
6 | Cl.O=C(CCN1CCc2ccccc2C1)c1cc(O)c(O)c([N+](=O)[O-])c1 [Compound 27, 3-(3,4-Dihydro-1H-isoquinolin-2-yl)-1-(3,4-dihydroxy-5-nitro-phenyl)-propan-1-one hydrochloride] | 11.4±4.0 % of control | – | – | – | – | – | –
7 | Cc1ccc(SCC(=O)c2cc(O)c(O)c([N+](=O)[O-])c2)cc1 [Compound 28, 1-(3,4-Dihydroxy-5-nitro-phenyl)-2-p-tolylsulphanyl-ethanone] | 10.0±2.6 % of control | – | – | – | – | – | –
8 | Cl.Cl.O=C(CCN1CCN(C(=O)c2ccccc2)CC1)c1cc(O)c(O)c([N+](=O)[O-])c1 [Compound 29, 3-(4-Benzoyl-piperazin-1-yl)-1-(3,4-dihydroxy-5-nitro-phenyl)-propan-1-one dihydrochloride] | 1.5±0.6 % of control | – | – | – | – | – | –
9 | COc1ccc(C(=O)N2CCN(CCC(=O)c3cc(O)c(O)c([N+](=O)[O-])c3)CC2)cc1.Cl.Cl [Compound 30, 1-(3,4-Dihydroxy-5-nitro-phenyl)-3-[4-(4-methoxy-benzoyl)-piperazin-1-yl]-propan-1-one dihydrochloride] | 1.9±1.3 % of control | – | – | – | – | – | –
